The source of these data is US20080171732A1, “New Pyridine Analogues IX 519” (AstraZeneca AB, priority 2007, published 2008).

The structures appear in SMILES notation.

In the assay the target is T1, P2Y12 receptor (Homo sapiens, UniProt Q9H244).
T1 construct: expressed in transfected cells; host or cells: CHO cells (membranes)
T1 sequence (Q9H244 whole entry): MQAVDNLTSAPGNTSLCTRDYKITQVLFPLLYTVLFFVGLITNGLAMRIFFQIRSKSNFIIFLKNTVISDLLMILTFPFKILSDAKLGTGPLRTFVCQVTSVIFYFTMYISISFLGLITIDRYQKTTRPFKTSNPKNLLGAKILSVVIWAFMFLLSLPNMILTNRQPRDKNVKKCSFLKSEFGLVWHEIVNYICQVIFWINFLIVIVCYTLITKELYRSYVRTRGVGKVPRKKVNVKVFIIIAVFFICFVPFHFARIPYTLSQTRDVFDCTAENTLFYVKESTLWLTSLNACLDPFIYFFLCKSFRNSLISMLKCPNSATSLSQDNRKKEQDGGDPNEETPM
Briefly: Functional inhibition of 2-Me-S-ADP induced P2Y12 signalling (35S-GTPγS, cell membranes from P2Y12 transfected CHO-cells). The class given is biochemical. To be noted: EC80 concentration of agonist 2-methyl-thio-adenosine diphosphate, 30° C., 45 min. Here is the method: Functional inhibition of-the P2Y12 receptor can be measured by in vitro assays using cell membranes from P2Y12 transfected CHO-cells, the methodology is indicated below.
(§1) Functional inhibition of 2-Me-S-ADP induced P2Y12 signalling: 5 μg of membranes were diluted in 200 μl of 200 mM NaCl, 1 mM MgCl2, 50 mM HEPES (pH 7.4), 0.01% BSA, 30μg/ml saponin and 10 μM GDP. To this was added an EC80 concentration of agonist (2-methyl-thio-adenosine diphosphate), the required concentration of test compound and 0.1 μCi ^35S-GTPγS. The reaction was allowed to proceed at 30° C. for 45 min. Samples were then transferred on to GF/B filters using a cell harvester and washed with wash buffer (50 mM Tris (pH 7.4), 5 mM MgCl2, 50 mM NaCl). Filters were then covered with scintilant and counted for the amount of ^35S-GTPγS retained by the filter. Maximum activity was that determined in the presence of the agonist and minimum activity in the absence of the agonist following subtraction of the value determined for non-specific activity. The effect of compounds at various concentrations was plotted according to the equation
y=A+((B−A)/(1+((C/x)̂D)))
and IC50 estimated where • A is the bottom plateau of the curve i.e. the final minimum y value • B is the top of the plateau of the curve i.e. the final maximum y value • C is the x value at the middle of the curve. This represents the log EC50 value when A+B=100 • D is the slope factor. • x is the original known x values. • Y is the original known y values.
as §1, with “30 μg/ml” for “30μg/ml”, “0. 1” for “0.1”
(GTPγS resists hydrolysis and so accumulates on activated G proteins.)
Compound `CCOC(=O)c1cc(C#N)c(N2CCC(C(=O)NS(=O)(=O)Cc3ccc(F)cc3Cl)CC2)nc1OC` [Example 17, Ethyl6-(4-{[(2-chloro-4-fluorobenzyl)sulfonyl]carbamoyl}piperidin-1-yl)-5-cyano-2-methoxynicotinate] returned a concentration for half-maximal inhibition (IC50) of 0.024 µM.

Turning to `CCOC(=O)c1cc(C#N)c(N2CC(C(=O)NS(=O)(=O)Cc3ccc(F)cc3)C2)nc1OCC` [Example 39, Ethyl5-cyano-2-ethoxy-6-(3-{[(4-fluorobenzyl)sulfonyl]carbamoyl}azetidin-1-yl)nicotinate], the IC50 is 0.032 µM. This IC50 and that of the compound before are within 1.5-fold of each other.

The compound `CCOC(=O)c1cc(C#N)c(N2CC(C(=O)NS(=O)(=O)Cc3cccc(F)c3)C2)nc1OC` [Example 23, Ethyl5-cyano-6-(3-{[(3-fluorobenzyl)sulfonyl]carbamoyl}azetidin-1-yl)-2-methoxynicotinate] registered a concentration for half-maximal inhibition (IC50) of 0.044 µM.

`COc1nc(N2CCC(C(=O)NS(=O)(=O)Cc3ccc(Cl)cc3)CC2)c(C#N)cc1C(=O)OC(C)C` [Example 55, Isopropyl6-(4-{[(4-chlorobenzyl)sulfonyl]carbamoyl}piperidin-1-yl)-5-cyano-2-methoxynicotinate] registered an IC50 of 0.011 µM.

In the case of `CCOC(=O)c1cc(C#N)c(N2CCC(C(=O)NS(=O)(=O)Cc3ccccc3)CC2)nc1C#N` [Example 5, Ethyl6-{4-[(benzylsulfonyl)carbamoyl]piperidin-1-yl}-2,5-dicyanonicotinate], the concentration for half-maximal inhibition (IC50) came out at 0.009 µM.

With `CCOC(=O)c1cc(C#N)c(N2CC(C(=O)NS(=O)(=O)Cc3ccccc3Cl)C2)nc1OC` [Example 22, Ethyl6-(3-{[(2-chlorobenzyl)sulfonyl]carbamoyl}azetidin-1-yl)-5-cyano-2-methoxynicotinate], the IC50 amounted to 0.012 µM. This IC50 and that of the compound before are within 1.5-fold of each other.

With `CCOC(=O)c1cc(C#N)c(N2CCC(C(=O)NS(=O)(=O)Cc3ccccc3)CC2)nc1SC` [Example 58, Ethyl6-{4-[(benzylsulfonyl)carbamoyl]piperidin-1-yl}-5-cyano-2-(methylthio)nicotinate], the 50% inhibitory concentration (IC50) came out at 0.0077 µM.

For the compound `CCOC(=O)c1cc(C#N)c(N2CC(C(=O)NS(=O)(=O)c3ccccc3)C2)nc1OC` [Example 20, Ethyl5-cyano-2-methoxy-6-{3-[(phenylsulfonyl)carbamoyl]azetidin-1-yl}nicotinate], the concentration for half-maximal inhibition (IC50) is 0.102 µM.

In turn, `CCOC(=O)c1cc(C#N)c(N2CCC(C(=O)NS(=O)(=O)Cc3ccc(Cl)cc3Cl)CC2)nc1OC` [Example 15, Ethyl5-cyano-6-(4-{[(2,4-dichlorobenzyl)sulfonyl]carbamoyl}piperidin-1-yl)-2-methoxynicotinate] gave an IC50 of 0.022 µM. This IC50 lies about 4.6-fold lower than the previous one.

As to `CCOC(=O)c1cc(C#N)c(N2CC(C(=O)NS(=O)(=O)Cc3ccccc3F)C2)nc1OCC` [Example 40, Ethyl5-cyano-2-ethoxy-6-(3-{[(2-fluorobenzyl)sulfonyl]carbamoyl}azetidin-1-yl)nicotinate], the IC50 is 0.031 µM.

For the compound `CCOC(=O)c1cc(C#N)c(N2CCC(C(=O)NS(=O)(=O)Cc3ccccc3)CC2)nc1CO` [Example 6, Ethyl6-{4-[(benzylsulfonyl)carbamoyl]piperidin-1-yl}-5-cyano-2-(hydroxymethyl)nicotinate], the IC50 worked out at 0.017 µM. This IC50 is about 1.8-fold lower than that of the compound before.

`CCOC(=O)c1cc(C#N)c(N2CC(C(=O)NS(=O)(=O)Cc3ccc(C(F)(F)F)cc3)C2)nc1OC` [Example 26, Ethyl5-cyano-2-methoxy-6-[3-({[4-(trifluoromethyl)benzyl]sulfonyl}carbamoyl)azetidin-1-yl]nicotinate] gave a concentration for half-maximal inhibition (IC50) of 0.012 µM.

Regarding `CCOC(=O)c1cc(C#N)c(N2CCC(C(=O)NS(=O)(=O)Cc3ccccc3F)CC2)nc1OC` [Example 8, Ethyl5-cyano-6-(4-{[(2-fluorobenzyl)sulfonyl]carbamoyl}piperidin-1-yl)-2-methoxynicotinate], the IC50 came out at 0.01 µM. This IC50 and that of the compound before are within 1.5-fold of each other.

Regarding `CCOCc1nc(N2CC(C(=O)NS(=O)(=O)Cc3ccccc3)C2)c(C#N)cc1C(=O)OCC` [Example 33, Ethyl6-{3-[(benzylsulfonyl)carbamoyl]azetidin-1-yl}-5-cyano-2-(ethoxymethyl)nicotinate], the IC50 worked out at 0.069 µM.

As usually defined, the IC50 is the point on the concentration scale where inhibition reaches its midpoint. A low value points to greater potency.
